From ChEMBL document CHEMBL1149774, “Synthesis of N-(5,7-diamino-3-phenyl-quinoxalin-2-yl)-3,4,5-substituted anilines and N-[4[(5,7-diamino-3-phenylquinoxalin-2-yl)amino]benzoyl]-l-glutamic acid diethyl ester: evaluation of in vitro anti-cancer and anti-folate activities” (Eur J Med Chem, 2008)

Columns and labels:
Type in all cases: functional
[1] = test system: DU-145; assay: Growth inhibition of human DU145 cells after 48 hrs by SRB staining method; settings: DU-145, 48 h
[2] = test system: UACC-62; assay: Growth inhibition of human UACC62 cells after 48 hrs by SRB staining method; settings: UACC-62, 48 h
[3] = test system: RXF 393; assay: Growth inhibition of human RXF393 cells after 48 hrs by SRB staining method; settings: RXF 393, 48 h
[4] = test system: NCI-H23; assay: Growth inhibition of human NCI-H23 cells after 48 hrs by SRB staining method; settings: NCI-H23, 48 h
[5] = test system: HCT-15; assay: Growth inhibition of human HCT15 cells after 48 hrs by SRB staining method; settings: HCT-15, 48 h
[6] = test system: LOX IMVI; assay: Growth inhibition of human LOX IMVI cells after 48 hrs by SRB staining method
[7] = test system: UACC-257; assay: Growth inhibition of human UACC257 cells after 48 hrs by SRB staining method; settings: UACC-257, 48 h
[8] = test system: SK-MEL-5; assay: Growth inhibition of human SK-MEL-5 cells after 48 hrs by SRB staining method; settings: SK-MEL-5, 48 h
[9] = test system: NCI/ADR-RES; assay: Growth inhibition of human NCI/ADR-RES cells after 48 hrs by SRB staining method
[10] = test system: HOP-62; assay: Growth inhibition of human HOP62 cells after 48 hrs by SRB staining method; settings: HOP-62, 48 h
[11] = test system: SN12C; assay: Growth inhibition of human SN12C cells after 48 hrs by SRB staining method
[12] = test system: U-251; assay: Growth inhibition of human U251 cells after 48 hrs by SRB staining method; settings: U-251, 48 h
[13] = test system: SK-OV-3; assay: Growth inhibition of human SKOV3 cells after 48 hrs by SRB staining method; settings: SK-OV-3, 48 h
[14] = test system: SR; assay: Growth inhibition of human SR cells after 48 hrs by SRB staining method
[15] = test system: HL-60; assay: Growth inhibition of human HL60 cells after 48 hrs by SRB staining method; settings: HL-60, 48 h
[16] = test system: 786-0; assay: Growth inhibition of human 786-0 cells after 48 hrs by SRB staining method; settings: 786-0, 48 h
[17] = test system: OVCAR-5; assay: Growth inhibition of human OVCAR5 cells after 48 hrs by SRB staining method; settings: OVCAR-5, 48 h
[18] = test system: NCI-H460; assay: Growth inhibition of human NCI-H460 cells after 48 hrs by SRB staining method; settings: NCI-H460, 48 h
[19] = test system: SF-295; assay: Growth inhibition of human SF295 cells after 48 hrs by SRB staining method; settings: SF-295, 48 h
[20] = test system: KM12; assay: Growth inhibition of human KM12 cells after 48 hrs by SRB staining method; settings: KM12, 48 h
[21] = test system: OVCAR-3; assay: Growth inhibition of human OVCAR-3 cells after 48 hrs by SRB staining method; settings: OVCAR-3, 48 h
[22] = test system: HCT-116; assay: Growth inhibition of human HCT116 cells after 48 hrs by SRB staining method; settings: HCT-116, 48 h
[23] = test system: EKVX; assay: Growth inhibition of human EKVX cells after 48 hrs by SRB staining method
[24] = test system: MDA-MB-435; assay: Growth inhibition of human MDA-MB-435 cells after 48 hrs by SRB staining method; settings: MDA-MB-435, 48 h
[25] = test system: OVCAR-4; assay: Growth inhibition of human OVCAR4 cells after 48 hrs by SRB staining method; settings: OVCAR-4, 48 h
[26] = test system: NCI-H322M; assay: Growth inhibition of human NCI-H322M cells after 48 hrs by SRB staining method
[27] = test system: TK-10; assay: Growth inhibition of human TK10 cells after 48 hrs by SRB staining method; settings: TK-10, 48 h
[28] = test system: OVCAR-8; assay: Growth inhibition of human OVCAR8 cells after 48 hrs by SRB staining method; settings: OVCAR-8, 48 h
[29] = test system: M14; assay: Growth inhibition of human M14 cells after 48 hrs by SRB staining method; settings: M14, 48 h
[30] = test system: MCF7; assay: Growth inhibition of human MCF7 cells after 48 hrs by SRB staining method; settings: MCF7, 48 h
[31] = test system: NCI-H522; assay: Growth inhibition of human NCI-H522 cells after 48 hrs by SRB staining method; settings: NCI-H522, 48 h
[32] = test system: NCI-H226; assay: Growth inhibition of human NCI-H226 cells after 48 hrs by SRB staining method; settings: NCI-H226, 48 h
[33] = test system: SF-268; assay: Growth inhibition of human SF268 cells after 48 hrs by SRB staining method; settings: SF-268, 48 h
[34] = read-out: pLC50 (the source's name) (converted)

COc1ccc(Nc2nc3cc(N)cc(N)c3nc2-c2ccccc2)cc1
GI50 [1]: 38.9 µM
CC50 [1, 34]: > 100 µM
TGI ([1]; read-out: pTGI (converted)): > 100 µM
GI50 [2]: 17 µM
LC50 [2]: 55 µM
TGI ([2]; read-out: pTGI (converted)): 30.2 µM
GI50 [3]: 11 µM
CC50 [3, 34]: 53.7 µM
TGI ([3]; read-out: pTGI (converted)): 24 µM
GI50 [4]: 12.6 µM
LC50 [4]: 51.3 µM
TGI ([4]; read-out: pTGI (converted)): 25.1 µM
GI50 [5]: 15.1 µM
LC50 [5]: > 100 µM
TGI ([5]; read-out: pTGI (converted)): 44.7 µM
GI50 [6]: 16.2 µM
LC50 [6]: 55 µM
TGI ([6]; read-out: pTGI (converted)): 29.5 µM
GI50 [7]: 15.1 µM
LC50 [7]: 52.5 µM
TGI ([7]; read-out: pTGI (converted)): 27.5 µM
GI50 [8]: 15.1 µM
LC50 [8]: 53.7 µM
TGI ([8]; read-out: pTGI (converted)): 28.8 µM
GI50 [9]: 19.1 µM
CC50 [9, 34]: > 100 µM
TGI ([9]; read-out: pTGI (converted)): 44.7 µM
GI50 [10]: 27.5 µM
LC50 [10]: > 100 µM
TGI ([10]; read-out: pTGI (converted)): > 100 µM
GI50 [11]: 20.4 µM
CC50 [11, 34]: > 100 µM
TGI ([11]; read-out: pTGI (converted)): 57.5 µM
GI50 [12]: 16.2 µM
LC50 (50% lethal concentration) [12]: 55 µM
TGI ([12]; read-out: pTGI (converted)): 29.5 µM
GI50 [13]: 33.1 µM
CC50 [13, 34]: > 100 µM
TGI ([13]; read-out: pTGI (converted)): 97.7 µM
GI50 [14]: 19.1 µM
CC50 [14, 34]: > 100 µM
TGI ([14]; read-out: pTGI (converted)): > 100 µM
GI50 [15]: 34.7 µM
CC50 [15, 34]: > 100 µM
TGI ([15]; read-out: pTGI (converted)): > 100 µM
GI50 [16]: 15.8 µM
CC50 [16, 34]: 60.3 µM
TGI ([16]; read-out: pTGI (converted)): 30.9 µM
GI50 [17]: 21.4 µM
LC50 [17]: > 100 µM
TGI ([17]; read-out: pTGI (converted)): 53.7 µM
GI50 [18]: 26.9 µM
LC50 (concentration killing 50% of cells) [18]: > 100 µM
TGI ([18]; read-out: pTGI (converted)): 89.1 µM
GI50 [19]: 31.6 µM
LC50 [19]: > 100 µM
TGI ([19]; read-out: pTGI (converted)): > 100 µM
GI50 [20]: 15.8 µM
LC50 [20]: 60.3 µM
TGI ([20]; read-out: pTGI (converted)): 30.9 µM
GI50 [21]: 17.4 µM
LC50 [21]: 79.4 µM
TGI ([21]; read-out: pTGI (converted)): 37.2 µM
GI50 [22]: 14.8 µM
LC50 [22]: 52.5 µM
TGI ([22]; read-out: pTGI (converted)): 28.2 µM
GI50 [23]: 25.7 µM
CC50 [23, 34]: > 100 µM
TGI ([23]; read-out: pTGI (converted)): > 100 µM
GI50 [24]: 16.6 µM
CC50 [24, 34]: 55 µM
TGI ([24]; read-out: pTGI (converted)): 30.2 µM
GI50 [25]: 10.5 µM
LC50 [25]: 46.8 µM
TGI ([25]; read-out: pTGI (converted)): 21.9 µM
GI50 [26]: 23.4 µM
LC50 [26]: > 100 µM
TGI ([26]; read-out: pTGI (converted)): 83.2 µM
GI50 [27]: 16.6 µM
CC50 [27, 34]: > 100 µM
TGI ([27]; read-out: pTGI (converted)): 42.7 µM
GI50 [28]: 13.8 µM
CC50 [28, 34]: 67.6 µM
TGI ([28]; read-out: pTGI (converted)): 30.9 µM
GI50 [29]: 17.8 µM
LC50 [29]: 75.9 µM
TGI ([29]; read-out: pTGI (converted)): 36.3 µM
GI50 [30]: 14.8 µM
CC50 [30, 34]: 52.5 µM
TGI ([30]; read-out: pTGI (converted)): 28.2 µM
GI50 [31]: 14.8 µM
LC50 [31]: 52.5 µM
TGI ([31]; read-out: pTGI (converted)): 28.2 µM
GI50 [32]: 24 µM
LC50 [32]: > 100 µM
TGI ([32]; read-out: pTGI (converted)): 97.7 µM
GI50 [33]: 12.9 µM
CC50 [33, 34]: 72.4 µM
TGI ([33]; read-out: pTGI (converted)): 30.9 µM
